Results reported in US20250177367A1, “COMBINATION THERAPIES FOR MODULATION OF LIPID PRODUCTION” (Ohio State Innovation Foundation, priority 2022, published 2025).
Entries after “also recorded” stand apart in the source; their conditions may differ.

How the values were obtained:
H1299 and U87 cells = test: Ammonia, glutamate and α-KG levels after GPNA or CB-839; assay type: cell-based; conditions: for levels of glutamate, ammonia, and α-KG in cells and in cell culture media: GPNA 5 mM or CB-839 100 nM, 12 hr; for glutamine consumption: H1299 and U87 cells
Description: The results are presented as mean±SEM (n=3). H1299 or U87 cells were cultured in RMPI 1640 or DMEM medium supplemented with 5% FBS for 24 hr. Cells then were washed with PBS once and treated with/without GPNA (5 mM) or CB-839 (100 nM) in the presence of glutamine (4 mM) and glucose (5 mM) under the fresh serum-free RMPI 1640 or DMEM medium for 12 hr before analysis. Cell culture conditions prior to treatment are the same for the subsequent panels unless otherwise stated.
Analysis of Metabolites in Cell Culture Medium. Metabolite levels in culture medium, including glucose, glutamine, lactate, glutamate, and NH4+, were measured using the Nova Bioprofile 100 Plus Bioanalyzer (Nova Biomedical). H1299 (4×105) or U87 (3×105) cells were seeded in 60 mm dish for 24 hr. After the cells were washed with PBS, they were switched to 2.5 ml serum-free medium with glucose (5 mM) and glutamine (4 mM) for 12 hr. The culture or control media (without cultured cells) were centrifuged at 12,000 rpm for 1 min and run on the bioanalyzer. Cell numbers were determined by using a hemocytometer after trypan blue staining. Consumption of glucose and glutamine or production of lactate, glutamate, and NH4+ under each experimental condition was calculated by subtracting their levels in control medium and normalizing to cell numbers.
(§1) Measures of Ammonia Levels in Tissues, Cells and bound to SCAP. To measure ammonia levels in tumors and normal tissues, 10 mg of tissues were collected and lysed through homogenization on ice in the ammonia assay buffer (100 l) from the commercial kit. The lysates were centrifuged at 20,000×g for 5 min at 4° C. and the ammonia levels in the supernatants were measured by the ammonia assay kit following the manufacturer's instructions (#ab83360, Abcam). For measurement of SCAP-bound ammonia, a total of 1.3×10^7 HEK293T cells was seeded in 15 cm dishes for 24 hr. The cells were transfected with GFP, GFP-SCAP wild-type, or D428A mutant together with myc-Insig1 plasmids for 24 hr, and then washed with PBS, followed by addition of fresh DMEM medium containing glucose (5 mM) and NH4Cl (4 mM) for 2 hr in the absence of glutamine. […]

[1] = system: H1299 cells-derived xenograft; test: H1299-derived xenograft mouse model treated with CB-839; assay type: in vivo, mice; conditions: CB-839 30 mg/kg, i.p., twice per day for 3 days
Description: The treatment started when the tumor size reached 200 mm^3. […] Scale bars, 50 m. The expression levels were quantified by using ImageJ to analyze 4 images per tumor and 3 tumors in each group.
as §1

SREBP-1/2 cleavage = test: Western blot of SREBP cleavage and FASN/SCD1 expression in GBM cells; assay type: cell-based, human; conditions: for pimozide-stimulated SREBP-1 activation, FASN/SCD1 and ASCT2 expression: with pimozide 5 μM, 24 hr, GBM30, U373 or U251
Description: P, precursor of SREBP; N, N-terminus of SREBP-1. C, C-terminus of SREBP-2.
4 mM glutamine and […] pyruvate.
(§2) Western Blot. Cells were lysed with RIPA buffer containing a protease inhibitor cocktail and phosphatase inhibitors. The proteins were separated on 12% SDS-PAGE, and transferred onto an ECL nitrocellulose membrane (#1620112, Bio-Rad). After blocking for 1.5 hr in 5% non-fat dried milk diluted by Tris-buffered saline containing 0.1% Tween 20, the membranes were incubated with various primary antibodies, followed by appropriate secondary antibodies conjugated to horseradish peroxidase.

SREBP activation = test: Western blot of GBM30 cells treated with CB-839 with glutamine, glutamate or NH4Cl; assay type: cell-based, human; conditions: 12 hr
Description: as §2

U251 cells [2] = test: Confocal imaging of mitochondria and ROS (MitoTracker / CellROX Deep Red); assay type: cell-based; conditions: GSH 3 mM
Description: ROS levels were quantified in more than 100 cells (mean±SEM). Sp<0.0001. Scale bar, 10 μm.
DON (10 μM) or CB-839 (I00 nM) in combination as in (A) in the presence or absence of PA (palmitate, 20 μM) and OA (oleic acid, 20 μM) and cholesterol (3 μg/ml) for 24 hr.

U251 cells [3] = test: Micrographs of U251 cell growth; assay type: cell-based; conditions: GSH 3 mM, 48 hr
Description: DON (10 μM) or CB-839 (100 nM) alone or in combination as in (A) in the presence or absence of GSH (3 mM) for 48 hr.
Micrographs show the growth of U251 cells treated with/without pimozide (2, 3 μM), perphenazine (3, 5 μM), GPNA (1 mM), or CB-839 (100 nM). Cells were cultured in 5% FBS full medium for 24 hr. Cells were then washed with PBS twice and treated in 1% FBS with the presence of 5 mM Glucose, 4 mM Glutamine and 1 mM Pyruvate in fresh serum-free medium for 48 hr. Scale bar, 100 μm.

SREBP-1 and -2 cleavage = test: SREBP activation by metabolites in H1299 or U87 cells (western blot, IF); assay type: cell-based; conditions: for SREBP-1 translocation into the nucleus: in the presence of glucose, without glutamine, 12 hr
Description: FIG. 1C show the western blot analysis of whole lysates from H1299 or U87 cells after NH4Cl stimulation at the indicated doses for 12 hr. in the presence of glucose (5 mM) under serum-free culture conditions.
Nuclei were stained with DAPI (blue). Scale bars, 10 m. The nuclear intensity of SREBP-1 was quantified over 30 cells by ImageJ (mean±SEM) and shown below. Significance was determined by unpaired Student's t test. *p<0.05, ^sp<0.001, #p<0.0001; N.S. not significant.
Western Blot. Cells were lysed with RIPA buffer containing a protease inhibitor cocktail and phosphatase inhibitors. […] After blocking for 1.5 hr in 5% non-fat dried milk diluted by Tris-buffered saline containing 0.1% Tween 20, the membranes were incubated with various primary antibodies, followed by appropriate secondary antibodies conjugated to horseradish peroxidase.
Immunofluorescence. Cells grown on coverslips were washed with PBS twice and fixed with 4% formaldehyde for 15 min, then permeabilized with 0.1% Triton X-100/PBS for 5 min and blocked by 3% bovine serum albumin for 30 min at room temperature. […] Cells were washed three times with PBS in a dark chamber.

ASCT2 = ASCT2 expression (western blot of membrane extracts, immunofluorescence); assay type: cell-based, human; conditions: pimozide 5 μM with cholesterol 3 μg/ml, 24 hr
Description: Transferring receptor-1(CD71), an integral membrane protein that mediates the uptake of transferrin-iron complexes, was used as a membrane loading control for ASCT2. […] Nuclei were stained with DAPI (blue).

[4] = system: normal human astrocytes (NHA); test: Effect of PMZ on normal human astrocytes; assay type: cell-based; conditions: doses up to 10 μM, 6 days
Description: Statistical significance was analyzed by one-way ANOVA.

GBM30-derived xenograft [5] = conditions: mouse, in vivo
Description: (§3) Mice were implanted with 3×10^6 GBM30 cells in flank. When tumor volume reached to 80 mm^3, pimozide (15, 30, 60 mg/kg/day) or vehicles were administered to mice via intraperitoneal injection for 14 days.
(§4) GBM30 cells were implanted in mice to form tumor same as FIG. 12A. Mice were started treatment when tumor volume reached to ˜80 mm^3 by pimozide (15 mg/kg/day) and fatostatin (25 mg/kg/day) alone or combination for 16 days. The tumors were isolated from mice at day 14 post-treatment and imaged. Data are shown as mean±SD (n=6).
(§5) Data are shown as mean±SD(n=6). Significance was determined by one-way ANOVA with Dunnett's multiple comparisons adjustment. *p<0.002. Tumor diameter was measured using vernier caliper and calculated as V=L×S×S/2 (S refers to short diameter, L means long diameter, V is tumor volume).
(§6) Mice were implanted with 3×10^6 GBM30 cells in flank. When tumor volume reached to ˜80 mm^3, pimozide (15 mg/kg/day), GPNA (50 mg/kg/day), DON (0.2 mg/kg/day), or CB-839 (25 mg/kg/day) alone or in combination were administered to mice via intraperitoneal injection for 14 days.
(§7) Data are shown as mean±SEM (n=6). Significance was determined by one-way ANOVA with Dunnett's multiple comparisons adjustment. *p<0.002.

GBM30-derived xenograft [6] = test: GBM30-derived flank xenograft model; conditions: 60 mg/kg dose
Description: as §3, §4, §5, §6, §7

O=C(Cc1cccc(OC(F)(F)F)c1)Nc1ccc(CCCCc2nnc(NC(=O)Cc3ccccn3)s2)nn1 [CB-839, telaglenastat]
levels of glutamate, ammonia, and α-KG in cells and in cell culture media (H1299 and U87 cells): dramatically reduced | glutamine consumption (H1299 and U87 cells): significant reduction | ammonia levels in tumor tissues [1]: reduction | SREBP-1 levels in tumors (IHC) ([1]; vs vehicle): significantly reduced | pimozide-stimulated SREBP-1 activation, FASN/SCD1 and ASCT2 expression (SREBP-1/2 cleavage): completely abolished | SREBP activation (SREBP activation; CB-839 200 nM): SREBP activation inhibited by CB-839

Cl.N[C@@H](CCC(=O)Nc1ccc([N+](=O)[O-])cc1)C(=O)O [GPNA, gamma-L-Glutamyl-p-nitroanilide Hydrochloride]
levels of glutamate, ammonia, and α-KG in cells and in cell culture media (H1299 and U87 cells): dramatically reduced | glutamine consumption (H1299 and U87 cells): significant reduction | pimozide-stimulated SREBP-1 activation, FASN/SCD1 and ASCT2 expression (SREBP-1/2 cleavage): completely abolished

N[C@@H](CCC(=O)N[C@@H](CS)C(=O)NCC(=O)O)C(=O)O [GSH]
combination treatment-elevated ROS level in mitochondria (U251 cells [2]): reduced the combination treatment-elevated ROS level in mitochondria | combination-induced cell death (U251 cells [3]): dramatically rescued the combination-induced cell death

N [ammonia]
restoration of pimozide-stimulated SREBP-1 activation, FASN/SCD1 and ASCT2 expression (SREBP-1/2 cleavage; NH3·H2O 4 mM, after glutamine absence, GPNA or CB-839): fully restored | SREBP-1 and -2 cleavage, FASN and SCD1 expression (SREBP-1 and -2 cleavage; in the presence of glucose 5 mM, NH4Cl, serum-free): induced SREBP-1 and -2 cleavage; also recorded: dose- and time-dependent | SREBP-1 translocation into the nucleus (SREBP-1 and -2 cleavage): markedly stimulated SREBP-1 translocation into the nucleus | restoration of SREBP activation and FASN/SCD1 expression inhibited by CB-839 (SREBP activation; 4 mM): strongly restore SREBP activation

CC(C)CCC[C@@H](C)[C@H]1CC[C@H]2[C@@H]3CC=C4C[C@@H](O)CC[C@]4(C)[C@H]3CC[C@]12C [cholesterol]
pimozide treatment-elevated ASCT2 expression (ASCT2): suppressed

N[C@@H](CCC(=O)O)C(=O)[O-].O.[Na+] [glutamate, L-Glutamic acid monosodium salt monohydrate]
SREBP-1 translocation into the nucleus (SREBP-1 and -2 cleavage): failed to do so

C[C@H](O)C(=O)[O-].[Na+] [lactate, sodium L-lactate]
SREBP-1 translocation into the nucleus (SREBP-1 and -2 cleavage): failed to do so

O=c1[nH]c2ccccc2n1C1CCN(CCCC(c2ccc(F)cc2)c2ccc(F)cc2)CC1 [pimozide]
toxic effects on normal human astrocytes [4]: no toxic effects | toxicity in mice (GBM30-derived xenograft [5]): toxic | time of treatment until mice died (GBM30-derived xenograft [6]): 6 to 8 days

O=C([O-])CCC(=O)C(=O)[O-].[Na+].[Na+] [α-KG, α-Ketoglutaric acid sodium salt]
SREBP-1 translocation into the nucleus (SREBP-1 and -2 cleavage): failed to do so
